In patent publication US20060121449A1, “Method for selection of compounds which inhibit clonal cell growth and use thereof” (priority 2002, published 2006):
Entries after “also recorded” stand apart in the source; their conditions may differ.

Tested on: polyoma virus transformed BHK21/c13 cells, line S100T1
Assay: Collocation inhibition test: clonal growth in sparsely and densely seeded areas of a cell density gradient of S100T1 cells in soft agar (Exp 13, 17, 19-26);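 further: soft agar cultures in 24-well plates with a cell density gradient in the top layer, compounds applied from DMSO stocks, clonal growth scored in sparse versus dense areas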;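 on Clonal growth, H high density area of cell gradient, High: grades rise with clonal growth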;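 on Clonal growth, H high density area of cell gradient, Low: grades rise with clonal growth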;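 on Clonal growth, H high density area of cell gradient, Medium: grades rise with clonal growth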;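 on Clonal growth, L low density area of cell gradient, High: grades rise with clonal growth and minus or plus-minus means none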;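 on Clonal growth, L low density area of cell gradient, Low: grades rise with clonal growth and minus or plus-minus means none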;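 on Clonal growth, L low density area of cell gradient, Medium: grades rise with clonal growth and minus or plus-minus means none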
Details: for Resulting clonal growth of treated cultures: Experiment 26, read after 24 hours; for Clonal growth, H high density area of cell gradient, High / Clonal growth, L low density area of cell gradient, High / Clonal growth, H high density area of cell gradient, Low / Clonal growth, L low density area of cell gradient, Low / Clonal growth, H high density area of cell gradient, Medium / Clonal growth, L low density area of cell gradient, Medium / Effect on cell cloning in soft agar: preliminary results; for Clonal growth, H high density area of cell gradient, High / Clonal growth, L low density area of cell gradient, High / Clonal growth, H high density area of cell gradient, Low / Clonal growth, L low density area of cell gradient, Low / Clonal growth, H high density area of cell gradient, Medium / Clonal growth, L low density area of cell gradient, Medium: Exp 13-18, 21-26; for Effect on cell cloning in soft agar: in words; for Effect on clonal growth and toxicity / Clonal growth: Exp 21; for Effect on clonal growth and toxicity: 117000 S100T1 cells/well
[1] = Exp 19, 120000 S100T1 cells/well

## c1ccc2c(c1)cc1ccc3cccc4ccc2c1c34 [Benzo(a)pyrene, reference compound]
Exp 26, 172800 S100T1 cells/well
  Effect on clonal growth, high dose: increased clonability
H: area with high cell density, High concentration
  Resulting clonal growth of treated cultures: ++
H: area with high cell density, Low concentration
  Resulting clonal growth of treated cultures: ++
H: area with high cell density, Medium concentration
  Resulting clonal growth of treated cultures: ++
L: area with low cell density, High concentration
  Resulting clonal growth of treated cultures: +++
L: area with low cell density, Low concentration
  Resulting clonal growth of treated cultures: ++
L: area with low cell density, Medium concentration
  Resulting clonal growth of treated cultures: ++
High concentration
  Clonal growth, H high density area of cell gradient, High: ++
  Clonal growth, L low density area of cell gradient, High: +++
Low concentration
  Clonal growth, H high density area of cell gradient, Low: ++
  Clonal growth, L low density area of cell gradient, Low: ++
Medium concentration
  Clonal growth, H high density area of cell gradient, Medium: ++
  Clonal growth, L low density area of cell gradient, Medium: ++
  Effect on cell cloning in soft agar: Increased clonal growth at low density

## COc1cc2c(c(OC)c1OC)-c1ccc(OC)c(=O)cc1[C@@H](NC(C)=O)CC2 [Colchicin]
Ability of cells to leave a tumour, grow and infiltrate locally or grow in sparsely seeded areas, concluded from Exp 17
  Control of metastatic cells leaving tumour: probably not
Single cells or very few cells spread to distant sites, concluded from Exp 17
  Control of settlement of metastatic cells: partly
Supposed main advantages or disadvantages if used in cancer treatment, concluded from Exp 17
  Toxicity for body or dense cell populations: none or small
supposed, if used in cancer treatment
  Tolerating long duration of treatment: yes

## O=P1(N(CCCl)CCCl)NCCCO1 (stereo not shown) [Cycloph. amide]
Exp 19, high concentration, H: high cell density part of the gradient
  Clonal growth after 48 hours incubation: ++
Exp 19, low concentration (exact conc. only in figure), H: high cell density part of the gradient
  Clonal growth after 48 hours incubation: ++(+)
Exp 19, medium concentration, H: high cell density part of the gradient
  Clonal growth after 48 hours incubation: ++(+)

## O=P1(N(CCCl)CCCl)NCCCO1 (stereo not shown) [Cyclophosphamide, reference compound]
[1]
  Effect on growth in densely and sparsely seeded areas: no inhibition of growth in any of these areas; also recorded: No inhibition of clonal cell growth was
  Effect on growth in densely seeded areas: stimulation of clonal growth probably was significant
Exp 19, 120000 S100T1 cells/well, listed as cyclophosphamide
  Effect on growth in densely and sparsely seeded areas: obtained, but cyclophosphamide stimulated
Exp 19, high concentration, L: low cell density part of the gradient
  Clonal growth after 48 hours incubation: ++
Exp 19, low concentration, L: low cell density part of the gradient
  Clonal growth after 48 hours incubation: ++
Exp 19, medium concentration, L: low cell density part of the gradient
  Clonal growth after 48 hours incubation: ++
High concentration
  Clonal growth, H high density area of cell gradient, High: ++
  Clonal growth, L low density area of cell gradient, High: ++
Low concentration
  Clonal growth, H high density area of cell gradient, Low: ++(+)
  Clonal growth, L low density area of cell gradient, Low: ++
Medium concentration
  Clonal growth, H high density area of cell gradient, Medium: ++(+)
  Clonal growth, L low density area of cell gradient, Medium: ++
  Effect on cell cloning in soft agar: When unactivated growth increased in

## Nc1ccn([C@@H]2O[C@H](CO)[C@@H](O)[C@@H]2O)c(=O)n1 [Cytarabin, reference compound]
  Effect on clonal growth and toxicity: significant toxic effect at dosage that showed significant inhibition of clonal growth; also recorded: incomplete inhibition and signs of toxicity
  Effect on cell cloning in soft agar: Incomplete inhibition of clonal growth
Listed as Cytarabine
  Effect on clonal growth and toxicity: incomplete inhibition of clonal growth and significant toxicity
117000 cells per well, Low concentration (see figure), H: area with high cell density
  Clonal growth: ++
High concentration, H: area with high cell density
  Clonal growth: (+)
High concentration, L: area with low cell density
  Clonal growth: (+)
Low concentration, L: area with low cell density
  Clonal growth: +
Medium concentration, H: area with high cell density
  Clonal growth: ++
Medium concentration, L: area with low cell density
  Clonal growth: +
High concentration
  Clonal growth, H high density area of cell gradient, High: (+)
  Clonal growth, L low density area of cell gradient, High: (+)
Low concentration
  Clonal growth, H high density area of cell gradient, Low: ++
  Clonal growth, L low density area of cell gradient, Low: +
Medium concentration
  Clonal growth, H high density area of cell gradient, Medium: ++
  Clonal growth, L low density area of cell gradient, Medium: +
